Measurements reported in PubChem BioAssay (NCI).
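All cell lines were grown in 96-well plates and treated with compound for 48 hours. GI50 = concentration required for 50% inhibition of growth. Definition used: TGI = concentration required for complete inhibition of growth.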

How the values were obtained:
Test in all cases: growth of human tumour cells (NCI), 48 h
RXF-631 renal = test system: RXF-631 renal
XF 498 CNS = test system: XF 498 CNS
DLD-1 colon = test system: DLD-1 colon
HOP-18 NSCLC = test system: HOP-18 NSCLC
DU-145 prostate = test system: DU-145 prostate
HS 578T breast = test system: HS 578T breast
MDA-N = test system: MDA-N
DMS 114 small cell lung = test system: DMS 114 small cell lung
LXFL 529 NSCLC = test system: LXFL 529 NSCLC

For `O=[N+]([O-])c1cnn(C2=CNc3ccccc3N=C2)c1`, the TGI (RXF-631 renal) was greater than 100 µM, the TGI (XF 498 CNS) was greater than 100 µM and the TGI (DLD-1 colon) was greater than 100 µM. For the same compound, the TGI (HOP-18 NSCLC) was greater than 100 µM.
`COc1cc2c(=O)n(CCN)c3c4cc5c(cc4ccc3c2cc1OC)OCO5` gave a GI50 (DU-145 prostate) of 0.488 µM, a TGI (DU-145 prostate) of 1.83 µM and a GI50 (HS 578T breast) of 2.8 µM. It also gave a TGI (HS 578T breast) of 11.7 µM.
In the case of `CC(CCC(=O)O)C(=O)O` (configuration not stated), the TGI (MDA-N) is reported as greater than 100 µM, the TGI (DU-145 prostate) is reported as greater than 100 µM and the TGI (HS 578T breast) is reported as greater than 100 µM.
`Nc1ccc(C(=O)CC(N)C(=O)O)cc1O` (configuration not stated) was tested, and the TGI (MDA-N) was greater than 100 µM, the TGI (DU-145 prostate) was greater than 100 µM and the TGI (HS 578T breast) was greater than 100 µM.
For `CCOc1cccc(/C=N/NC(=O)C(=O)Nc2cccc(C(F)(F)F)c2)c1O`, the GI50 (DU-145 prostate) was 3.22 µM, the TGI (DU-145 prostate) was greater than 100 µM and the GI50 (HS 578T breast) was 12 µM. For the same compound, the TGI (HS 578T breast) was greater than 100 µM.
Work on `CCCOc1ccc2nc(NC(=O)OC)[nH]c2c1` yielded a GI50 (DU-145 prostate) of 0.466 µM, a GI50 (HS 578T breast) of 0.342 µM and a TGI (HS 578T breast) greater than 100 µM.
`Cc1cccc(-n2c(=S)[nH]c3c(sc(=O)n3-c3ccccc3C)c2=O)c1` showed a TGI (RXF-631 renal) greater than 100 µM, a TGI (DMS 114 small cell lung) greater than 100 µM and a TGI (DLD-1 colon) greater than 100 µM. It also gave a TGI (LXFL 529 NSCLC) greater than 100 µM and a TGI (HOP-18 NSCLC) greater than 100 µM.
Compound `COc1ccc(Cn2cc3c(c2)-c2oncc2CC3)cc1` has a GI50 (DU-145 prostate) of 4.46 µM, a TGI (DU-145 prostate) of 34.5 µM and a GI50 (HS 578T breast) of 3 µM. For the same compound, the TGI (HS 578T breast) was 13.8 µM.
With `COc1ccc(-c2oc3c(OC)c(OC)c(OC)c(OC)c3c(=O)c2OC)cc1OC` the TGI (MDA-N) was greater than 100 µM, the TGI (DU-145 prostate) was greater than 100 µM and the TGI (HS 578T breast) was 56.3 µM.
For `CCOC(=O)c1cc(/C=C/C(C)=C/C(=O)OC)oc1C`, the TGI (XF 498 CNS) was greater than 100 µM, the TGI (DMS 114 small cell lung) was greater than 100 µM and the TGI (DLD-1 colon) was greater than 100 µM. The TGI (LXFL 529 NSCLC) was greater than 100 µM.
With `COc1cc(C(=O)Nc2cc3c(cc2Oc2cc(C)cc(C)c2)C(=O)N(C)[C@@H](CC(=O)N(C)O)C(=O)N3)c(Br)c(OC)c1OC` the GI50 (DU-145 prostate) was less than 0.00333 µM, the TGI (DU-145 prostate) was 0.00428 µM and the GI50 (HS 578T breast) was less than 0.00333 µM. It also gave a TGI (HS 578T breast) of 0.00422 µM.
`NC(=S)NNc1c([N+](=O)[O-])cnn(-c2ccccc2)c1=O` gave a TGI (XF 498 CNS) of 32.6 µM, a TGI (DMS 114 small cell lung) of 33.2 µM and a TGI (DLD-1 colon) of 28.5 µM. The TGI (LXFL 529 NSCLC) was 21.1 µM.
Work on `O=C(O)C1CCCCC1C(=O)O.[NH-]C1CCC1.[NH2-].[Pt+2]` (configuration not stated) yielded a GI50 (DU-145 prostate) of 12.5 µM, a TGI (DU-145 prostate) of 25 µM and a GI50 (HS 578T breast) of 19.3 µM. The TGI (HS 578T breast) was 57 µM.
Work on `CCN(CC)C(=S)Oc1cc2oc(=O)cc(C)c2cc1Cl` yielded a TGI (MDA-N) greater than 100 µM, a TGI (DU-145 prostate) greater than 100 µM and a TGI (HS 578T breast) greater than 100 µM.
Compound `Nc1ccccc1C#C/C=C\C#Cc1ccccc1[N+](=O)[O-]` has a GI50 (DU-145 prostate) of 7.86 µM, a TGI (DU-145 prostate) of 29.2 µM and a GI50 (HS 578T breast) of 4.99 µM. The TGI (HS 578T breast) was greater than 100 µM.
With `C=C1C(=O)O[C@H]2[C@H]1CC/C(COC(=O)c1cc3cc(Cl)ccc3[nH]1)=C\CC[C@@]1(C)O[C@@H]21` the GI50 (HS 578T breast) was 2.25 µM and the TGI (HS 578T breast) was 6.48 µM.
`CCC1=NC(CO)[C@H](c2ccccc2)O1` (some centres not stated) was tested, and the TGI (XF 498 CNS) was greater than 100 µM, the TGI (DMS 114 small cell lung) was greater than 100 µM and the TGI (DLD-1 colon) was greater than 100 µM. The TGI (HOP-18 NSCLC) was greater than 100 µM.
Work on `CCCCN(CCCC)c1c([N+](=O)[O-])c(=O)nc2ccccn12` yielded a TGI (RXF-631 renal) of 79.8 µM, a TGI (XF 498 CNS) of 79.6 µM and a TGI (DMS 114 small cell lung) of 49.6 µM. It also gave a TGI (DLD-1 colon) greater than 100 µM and a TGI (LXFL 529 NSCLC) greater than 100 µM.
Work on `C/C(=N\N(c1ccccc1)c1ccccc1)c1c(O)cc(C)oc1=O` yielded a TGI (DLD-1 colon) greater than 100 µM, a TGI (LXFL 529 NSCLC) greater than 100 µM and a TGI (HOP-18 NSCLC) greater than 100 µM.
`COC1OC(CO)C(O)C1N` (configuration not stated) showed a TGI (RXF-631 renal) greater than 100 µM, a TGI (DMS 114 small cell lung) greater than 100 µM and a TGI (DLD-1 colon) greater than 100 µM. For the same compound, the TGI (LXFL 529 NSCLC) was greater than 100 µM and the TGI (HOP-18 NSCLC) was greater than 100 µM.
`Cc1c(C(=O)NCCN2CCOCC2)cn2ncnc(Oc3ccc(NC(=O)Nc4ccc(Cl)c(C(F)(F)F)c4)cc3)c12` was tested, and the GI50 (HS 578T breast) was 1.48 µM and the TGI (HS 578T breast) was 3.99 µM.
`CCOP(=O)(OCC)OC(C#N)c1ccc(-c2ccccc2)cc1` (configuration not stated) was tested, and the TGI (XF 498 CNS) was 50.1 µM, the TGI (DMS 114 small cell lung) was 29.6 µM and the TGI (DLD-1 colon) was 36.9 µM. The TGI (LXFL 529 NSCLC) was 32 µM and the TGI (HOP-18 NSCLC) was 98.2 µM.
For `COc1ccc(/C=C\c2cc(OC)c(O[Si](C)(C)C(C)(C)C)c(OC)c2)cc1`, the TGI (RXF-631 renal) was greater than 100 µM, the TGI (XF 498 CNS) was 49.5 µM and the TGI (DMS 114 small cell lung) was 91.4 µM. For the same compound, the TGI (DLD-1 colon) was greater than 100 µM and the TGI (LXFL 529 NSCLC) was greater than 100 µM.
For `OCCNc1ncnc2c1ncn2Cc1cccc(COc2cccc(OCc3cccc(Cn4cnc5c(NCCO)ncnc54)c3)c2)c1`, the GI50 (DU-145 prostate) was 16.7 µM, the TGI (DU-145 prostate) was 32.5 µM and the GI50 (HS 578T breast) was 11.8 µM. For the same compound, the TGI (HS 578T breast) was 28.7 µM.
Compound `CN(C)CC1CCC/C1=N\O` (configuration not stated) has a TGI (DLD-1 colon) greater than 100 µM, a TGI (LXFL 529 NSCLC) greater than 100 µM and a TGI (HOP-18 NSCLC) greater than 100 µM.
With `CC1C(=O)OCC2=CCN3CCC(OC(=O)C(C)C1(C)O)C23` (configuration not stated) the TGI (MDA-N) was greater than 100 µM, the TGI (DU-145 prostate) was greater than 100 µM and the TGI (HS 578T breast) was greater than 100 µM.
For `COc1ccc(-c2ccc(-c3ccc(C(=N)N)cn3)o2)cc1`, the GI50 (DU-145 prostate) was 11.3 µM, the TGI (DU-145 prostate) was 24.7 µM and the GI50 (HS 578T breast) was 10.9 µM. For the same compound, the TGI (HS 578T breast) was 36.7 µM.
`Cn1c2c(c3ccc(Cl)c(Cl)c31)C(C#N)C1(CCNCC1)NC2=O` (configuration not stated) was tested, and the GI50 (DU-145 prostate) was 1.56 µM, the TGI (DU-145 prostate) was 3.03 µM and the GI50 (HS 578T breast) was 1.13 µM. The TGI (HS 578T breast) was 3.61 µM.
`NCCCCNc1ccc2c(=O)[nH][nH]c(=O)c2c1` was tested, and the TGI (DMS 114 small cell lung) was greater than 100 µM, the TGI (DLD-1 colon) was greater than 100 µM and the TGI (LXFL 529 NSCLC) was greater than 100 µM. It also gave a TGI (HOP-18 NSCLC) greater than 100 µM.
`CCOC(=O)/C=C/C1=C(c2cccs2)c2ccccc2CC1` gave a GI50 (DU-145 prostate) of 22.6 µM, a TGI (DU-145 prostate) of 58.6 µM and a GI50 (HS 578T breast) of 28.5 µM. It also gave a TGI (HS 578T breast) of 99.1 µM.
`COc1cc(/C=C2\C(=O)Nc3ccc(N(C)C)cc32)cc(OC)c1OC` gave a GI50 (DU-145 prostate) of 3.08 µM, a TGI (DU-145 prostate) greater than 29.3 µM and a GI50 (HS 578T breast) of 3.89 µM. It also gave a TGI (HS 578T breast) greater than 100 µM.
`Cc1cccc(C)c1NC(=O)C1C(=O)N(c2c(C)cccc2C)C(=O)/C1=N\NC(N)=S` (configuration not stated) gave a TGI (DMS 114 small cell lung) greater than 100 µM, a TGI (DLD-1 colon) greater than 100 µM and a TGI (LXFL 529 NSCLC) greater than 100 µM. It also gave a TGI (HOP-18 NSCLC) greater than 100 µM.
Work on `C/C=C/C=C/C=C/C=C/C(=O)O` yielded a TGI (RXF-631 renal) greater than 100 µM, a TGI (DMS 114 small cell lung) greater than 100 µM and a TGI (DLD-1 colon) greater than 100 µM. The TGI (LXFL 529 NSCLC) was greater than 100 µM and the TGI (HOP-18 NSCLC) was greater than 100 µM.
With `CCOC(=O)/C=C1\CCCC12OCCO2` the TGI (DMS 114 small cell lung) was greater than 100 µM, the TGI (DLD-1 colon) was greater than 100 µM and the TGI (LXFL 529 NSCLC) was greater than 100 µM. For the same compound, the TGI (HOP-18 NSCLC) was greater than 100 µM.
`COc1ccc(N2C(=O)[C@H]3CC(C)c4c([nH]c5ccccc45)[C@H]3C2=O)cc1` (some centres not stated) gave a TGI (XF 498 CNS) of 22.4 µM, a TGI (MDA-N) of 3.4 µM and a TGI (DU-145 prostate) greater than 45.8 µM. The TGI (DMS 114 small cell lung) was 7.32 µM, the TGI (DLD-1 colon) was greater than 41.5 µM and the TGI (LXFL 529 NSCLC) was 26.8 µM. The TGI (HS 578T breast) was 33.4 µM.
`Nc1ccccc1C#C/C=C\C#Cc1ccccc1` gave a GI50 (DU-145 prostate) of 12.2 µM and a TGI (DU-145 prostate) of 38.3 µM.
For `COc1ccccc1/C=C/C(=O)c1ccccc1`, the GI50 (DU-145 prostate) was 5.23 µM, the TGI (DU-145 prostate) was 16.3 µM and the GI50 (HS 578T breast) was 12.1 µM. The TGI (HS 578T breast) was greater than 25.5 µM.
`CC[PH+](CC)CC.O=COC1OC([S-])C(OC=O)C(OC=O)C1OC=O.[Au+]` (configuration not stated) was tested, and the GI50 (DU-145 prostate) was 1.58 µM, the TGI (DU-145 prostate) was 3.33 µM and the GI50 (HS 578T breast) was 0.775 µM. The TGI (HS 578T breast) was 4.76 µM.
